Source: ChEMBL document CHEMBL6114958, “Progress in the study of anti-Alzheimer's disease activity of pyrimidine-containing bioactive molecules” (Eur J Med Chem, 2025)

Columns and labels:
[1] = target: Beta-secretase 1 (Homo sapiens, UniProt P56817); assay: Inhibition of BACE1 (unknown origin)
[2] = target: T1, Cholinesterase (Homo sapiens, UniProt P06276); assay: Inhibition of human BChE by Ellman's method
[3] = target: T2, Acetylcholinesterase (Homo sapiens, UniProt P22303); assay: Inhibition of recombinant human AChE using acetylthiocholine iodide as substrate by Ellman's method
T2 sequence (P22303 whole entry): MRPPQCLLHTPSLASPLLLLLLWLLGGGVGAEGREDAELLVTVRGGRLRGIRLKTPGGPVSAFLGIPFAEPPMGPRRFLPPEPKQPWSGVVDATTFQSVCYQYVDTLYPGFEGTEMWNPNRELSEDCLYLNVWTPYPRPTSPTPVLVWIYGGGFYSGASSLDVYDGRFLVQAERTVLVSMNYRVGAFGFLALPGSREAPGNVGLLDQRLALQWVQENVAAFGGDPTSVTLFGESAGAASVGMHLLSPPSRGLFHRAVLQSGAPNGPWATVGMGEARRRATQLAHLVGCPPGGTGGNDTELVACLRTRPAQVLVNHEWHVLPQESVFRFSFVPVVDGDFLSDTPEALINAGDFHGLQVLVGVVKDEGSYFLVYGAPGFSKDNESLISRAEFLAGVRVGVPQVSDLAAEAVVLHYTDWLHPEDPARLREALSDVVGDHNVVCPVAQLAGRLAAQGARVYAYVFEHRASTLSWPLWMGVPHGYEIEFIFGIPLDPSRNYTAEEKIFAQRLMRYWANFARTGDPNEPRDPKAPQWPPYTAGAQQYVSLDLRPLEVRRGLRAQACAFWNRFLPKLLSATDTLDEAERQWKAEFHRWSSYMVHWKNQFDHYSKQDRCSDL

[4] = target: T2, Acetylcholinesterase; assay: Inhibition of human AChE by Ellman's method
[5] = target: High affinity cGMP-specific 3',5'-cyclic phosphodiesterase 9A (Homo sapiens, UniProt O76083); assay: Inhibition of PDE9 (unknown origin)
High affinity cGMP-specific 3',5'-cyclic phosphodiesterase 9A, sequence (O76083 whole entry): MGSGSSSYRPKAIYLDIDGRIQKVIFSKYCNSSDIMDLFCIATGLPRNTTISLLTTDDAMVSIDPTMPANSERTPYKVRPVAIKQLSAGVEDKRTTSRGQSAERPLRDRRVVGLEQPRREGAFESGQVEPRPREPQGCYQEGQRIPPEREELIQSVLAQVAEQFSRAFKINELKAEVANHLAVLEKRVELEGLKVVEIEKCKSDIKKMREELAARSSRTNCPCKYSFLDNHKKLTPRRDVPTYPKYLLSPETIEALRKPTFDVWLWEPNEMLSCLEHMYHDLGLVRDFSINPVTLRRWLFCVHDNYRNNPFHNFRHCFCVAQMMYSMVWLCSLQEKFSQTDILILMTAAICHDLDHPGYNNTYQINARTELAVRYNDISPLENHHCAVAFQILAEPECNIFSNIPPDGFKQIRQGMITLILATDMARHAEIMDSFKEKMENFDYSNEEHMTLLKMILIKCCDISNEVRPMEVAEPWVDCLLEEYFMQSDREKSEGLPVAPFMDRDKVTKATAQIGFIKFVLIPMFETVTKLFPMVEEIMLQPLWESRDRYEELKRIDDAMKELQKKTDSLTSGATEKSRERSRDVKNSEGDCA

[6] = target: Histone deacetylase 1 (Homo sapiens, UniProt Q13547); assay: Inhibition of HDAC1 (unknown origin)
Histone deacetylase 1, sequence (Q13547 whole entry): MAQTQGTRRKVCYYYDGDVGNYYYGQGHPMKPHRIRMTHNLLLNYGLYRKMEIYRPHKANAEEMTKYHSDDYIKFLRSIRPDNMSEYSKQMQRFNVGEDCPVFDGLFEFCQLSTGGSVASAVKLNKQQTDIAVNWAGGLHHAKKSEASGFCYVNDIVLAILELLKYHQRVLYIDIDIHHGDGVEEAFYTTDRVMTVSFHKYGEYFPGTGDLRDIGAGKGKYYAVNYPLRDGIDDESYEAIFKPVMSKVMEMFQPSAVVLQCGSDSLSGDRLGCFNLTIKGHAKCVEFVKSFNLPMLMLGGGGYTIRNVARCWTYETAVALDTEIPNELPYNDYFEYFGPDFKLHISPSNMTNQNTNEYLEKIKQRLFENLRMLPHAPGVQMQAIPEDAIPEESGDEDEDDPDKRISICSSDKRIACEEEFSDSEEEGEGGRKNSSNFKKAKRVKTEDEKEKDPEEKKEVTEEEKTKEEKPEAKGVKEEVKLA

[7] = target: Histone deacetylase 2 (Homo sapiens, UniProt Q92769); assay: Inhibition of HDAC2 (unknown origin)
Histone deacetylase 2, sequence (Q92769 whole entry): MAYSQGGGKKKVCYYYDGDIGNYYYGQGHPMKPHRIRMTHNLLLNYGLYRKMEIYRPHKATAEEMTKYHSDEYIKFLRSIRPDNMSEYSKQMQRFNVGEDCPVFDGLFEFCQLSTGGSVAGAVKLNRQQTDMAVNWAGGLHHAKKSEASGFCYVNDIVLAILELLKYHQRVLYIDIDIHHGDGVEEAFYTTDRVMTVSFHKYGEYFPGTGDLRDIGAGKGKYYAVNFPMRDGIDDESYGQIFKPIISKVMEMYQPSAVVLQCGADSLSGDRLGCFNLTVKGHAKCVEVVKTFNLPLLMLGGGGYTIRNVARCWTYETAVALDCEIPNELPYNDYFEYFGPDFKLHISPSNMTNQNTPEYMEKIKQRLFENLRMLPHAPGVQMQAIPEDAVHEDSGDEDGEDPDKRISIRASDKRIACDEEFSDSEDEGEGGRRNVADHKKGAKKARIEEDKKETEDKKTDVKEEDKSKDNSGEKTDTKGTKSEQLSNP

[8] = target: T3, Protein deacetylase HDAC6 (Homo sapiens, UniProt Q9UBN7); assay: Inhibition of HDAC6 (unknown origin)
T3 sequence (Q9UBN7 whole entry): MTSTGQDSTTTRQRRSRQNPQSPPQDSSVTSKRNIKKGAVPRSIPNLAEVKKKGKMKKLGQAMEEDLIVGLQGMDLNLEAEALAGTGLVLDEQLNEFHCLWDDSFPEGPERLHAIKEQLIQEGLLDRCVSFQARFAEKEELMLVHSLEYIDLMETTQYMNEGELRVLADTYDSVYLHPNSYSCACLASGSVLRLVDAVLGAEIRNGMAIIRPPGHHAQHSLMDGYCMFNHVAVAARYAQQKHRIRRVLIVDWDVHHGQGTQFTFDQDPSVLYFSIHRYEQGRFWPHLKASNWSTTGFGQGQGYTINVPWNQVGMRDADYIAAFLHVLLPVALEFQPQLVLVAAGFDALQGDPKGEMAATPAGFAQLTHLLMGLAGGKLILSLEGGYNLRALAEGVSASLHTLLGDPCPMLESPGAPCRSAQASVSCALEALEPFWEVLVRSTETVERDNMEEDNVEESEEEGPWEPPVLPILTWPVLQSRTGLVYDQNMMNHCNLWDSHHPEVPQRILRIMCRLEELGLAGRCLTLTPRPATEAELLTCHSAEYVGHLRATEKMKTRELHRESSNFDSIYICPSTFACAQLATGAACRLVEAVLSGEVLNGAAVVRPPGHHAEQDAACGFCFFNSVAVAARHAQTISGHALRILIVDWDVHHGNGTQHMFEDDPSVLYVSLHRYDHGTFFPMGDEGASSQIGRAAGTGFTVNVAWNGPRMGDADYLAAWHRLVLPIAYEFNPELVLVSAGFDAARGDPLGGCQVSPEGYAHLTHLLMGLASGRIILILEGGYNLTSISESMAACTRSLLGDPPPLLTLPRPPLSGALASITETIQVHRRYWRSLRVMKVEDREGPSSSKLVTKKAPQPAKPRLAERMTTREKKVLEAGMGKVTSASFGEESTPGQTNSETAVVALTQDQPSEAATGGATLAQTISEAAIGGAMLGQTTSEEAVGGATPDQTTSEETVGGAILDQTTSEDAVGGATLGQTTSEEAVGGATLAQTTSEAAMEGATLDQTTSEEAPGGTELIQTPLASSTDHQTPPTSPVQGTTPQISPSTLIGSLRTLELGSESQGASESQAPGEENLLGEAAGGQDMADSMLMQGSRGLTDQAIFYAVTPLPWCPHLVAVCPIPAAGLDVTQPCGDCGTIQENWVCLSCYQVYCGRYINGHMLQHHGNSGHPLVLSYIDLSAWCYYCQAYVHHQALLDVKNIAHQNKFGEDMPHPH

[9] = target: T2, Acetylcholinesterase; assay: Inhibition of AChE (unknown origin)
[10] = target: T1, Cholinesterase; assay: Inhibition of BChE (unknown origin)
[11] = target: T4, Amine oxidase [flavin-containing] A (Homo sapiens, UniProt P21397); assay: Inhibition of recombinant human MAO-A assessed as fluorescence measured after 30 mins by Amplex Red reagent assay
T4 sequence (P21397 whole entry): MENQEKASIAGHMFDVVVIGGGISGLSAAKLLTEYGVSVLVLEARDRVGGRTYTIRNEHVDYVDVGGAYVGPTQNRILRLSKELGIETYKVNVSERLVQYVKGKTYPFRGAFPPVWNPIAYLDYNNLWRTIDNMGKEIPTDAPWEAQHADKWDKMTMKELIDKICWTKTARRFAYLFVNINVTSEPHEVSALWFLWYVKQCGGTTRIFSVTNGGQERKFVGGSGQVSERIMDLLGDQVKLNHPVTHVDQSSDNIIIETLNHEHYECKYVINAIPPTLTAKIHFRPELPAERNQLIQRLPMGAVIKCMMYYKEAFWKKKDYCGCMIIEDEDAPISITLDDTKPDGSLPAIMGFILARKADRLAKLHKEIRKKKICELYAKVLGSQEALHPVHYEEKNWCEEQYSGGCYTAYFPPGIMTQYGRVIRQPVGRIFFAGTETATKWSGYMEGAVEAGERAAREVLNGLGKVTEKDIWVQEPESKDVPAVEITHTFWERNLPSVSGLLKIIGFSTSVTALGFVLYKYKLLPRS

[12] = target: T5, Amine oxidase [flavin-containing] B (Homo sapiens, UniProt P27338); assay: Inhibition of recombinant human MAO-B assessed as fluorescence measured after 30 mins by Amplex Red reagent assay
T5 sequence (P27338 whole entry): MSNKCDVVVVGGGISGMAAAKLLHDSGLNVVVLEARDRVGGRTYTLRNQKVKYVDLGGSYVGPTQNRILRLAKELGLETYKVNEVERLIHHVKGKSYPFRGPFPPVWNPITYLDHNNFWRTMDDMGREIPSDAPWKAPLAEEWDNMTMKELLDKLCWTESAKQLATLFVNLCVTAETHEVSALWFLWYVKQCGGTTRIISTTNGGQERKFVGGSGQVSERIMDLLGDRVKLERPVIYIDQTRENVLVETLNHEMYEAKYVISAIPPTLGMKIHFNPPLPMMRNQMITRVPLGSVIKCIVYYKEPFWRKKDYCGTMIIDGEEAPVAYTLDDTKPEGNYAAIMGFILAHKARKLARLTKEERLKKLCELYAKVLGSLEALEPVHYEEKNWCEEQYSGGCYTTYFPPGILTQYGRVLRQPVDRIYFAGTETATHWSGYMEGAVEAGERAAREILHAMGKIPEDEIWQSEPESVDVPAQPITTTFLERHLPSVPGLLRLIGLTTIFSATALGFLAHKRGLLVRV

[13] = target: T2, Acetylcholinesterase; assay: Inhibition of Acetylcholinesterase (unknown origin) activity measured after 15 mins by Amplex Red reagent assay
[14] = target: T4, Amine oxidase [flavin-containing] A; assay: Inhibition of human MAO-A
[15] = target: T5, Amine oxidase [flavin-containing] B; assay: Inhibition of human MAO-B
[16] = target: T6, Acetylcholinesterase (Electrophorus electricus, UniProt O42275); assay: Inhibition of electric eel AChE
T6 sequence (O42275 whole entry): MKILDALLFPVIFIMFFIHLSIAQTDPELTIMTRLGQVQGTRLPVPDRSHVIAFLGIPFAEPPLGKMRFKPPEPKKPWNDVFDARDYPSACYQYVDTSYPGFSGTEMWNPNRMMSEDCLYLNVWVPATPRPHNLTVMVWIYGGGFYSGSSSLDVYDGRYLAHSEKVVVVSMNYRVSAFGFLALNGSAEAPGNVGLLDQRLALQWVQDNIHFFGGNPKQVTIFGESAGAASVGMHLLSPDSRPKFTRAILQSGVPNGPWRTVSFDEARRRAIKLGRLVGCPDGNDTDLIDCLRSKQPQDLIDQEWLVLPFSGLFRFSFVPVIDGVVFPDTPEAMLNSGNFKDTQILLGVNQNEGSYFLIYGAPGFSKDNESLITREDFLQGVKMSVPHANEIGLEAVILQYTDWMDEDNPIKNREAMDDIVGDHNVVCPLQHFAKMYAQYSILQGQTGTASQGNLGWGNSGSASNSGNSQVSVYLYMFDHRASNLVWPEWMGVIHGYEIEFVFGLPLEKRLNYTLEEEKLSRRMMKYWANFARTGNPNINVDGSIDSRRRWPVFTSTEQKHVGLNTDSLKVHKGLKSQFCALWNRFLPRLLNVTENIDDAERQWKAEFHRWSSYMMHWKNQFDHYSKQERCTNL

[17] = target: Acetylcholinesterase (Electrophorus electricus) (UniProt O42275); assay: Inhibition of electric eel AChE using acetylthiocholine as substrate at 9 uM by Ellman's spectrophotometric method relative to control
Acetylcholinesterase (Electrophorus electricus), sequence (O42275 24-633 limits assumed): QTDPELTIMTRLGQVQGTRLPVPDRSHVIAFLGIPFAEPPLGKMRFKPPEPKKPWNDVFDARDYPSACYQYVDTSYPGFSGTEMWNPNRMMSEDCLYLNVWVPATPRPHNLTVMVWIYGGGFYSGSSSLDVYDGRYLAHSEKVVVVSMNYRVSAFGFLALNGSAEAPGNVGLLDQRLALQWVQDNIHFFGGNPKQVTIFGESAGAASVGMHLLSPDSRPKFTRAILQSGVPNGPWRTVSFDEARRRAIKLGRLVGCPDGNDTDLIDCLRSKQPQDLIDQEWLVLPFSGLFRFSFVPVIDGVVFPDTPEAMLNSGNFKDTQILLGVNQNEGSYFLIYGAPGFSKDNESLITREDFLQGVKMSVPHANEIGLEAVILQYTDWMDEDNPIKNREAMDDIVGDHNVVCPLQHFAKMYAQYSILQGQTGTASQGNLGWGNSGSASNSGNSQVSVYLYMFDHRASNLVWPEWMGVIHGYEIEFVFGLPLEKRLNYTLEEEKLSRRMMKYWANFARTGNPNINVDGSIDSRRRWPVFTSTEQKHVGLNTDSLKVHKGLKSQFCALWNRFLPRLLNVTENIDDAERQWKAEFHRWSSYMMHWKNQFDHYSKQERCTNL

[18] = target: T6, Acetylcholinesterase; assay: Inhibition of electric eel AChE using ACTI as substrate measured after 30 mins by spectrometric analysis
[19] = target: Cholinesterase (Equus caballus, UniProt P81908); assay: Inhibition of equine serum BChE using butyrylthiocholine iodide measured after 25 mins by Ellman's spectrophotometric method
Cholinesterase (Equus caballus, UniProt P81908), sequence (P81908 whole entry): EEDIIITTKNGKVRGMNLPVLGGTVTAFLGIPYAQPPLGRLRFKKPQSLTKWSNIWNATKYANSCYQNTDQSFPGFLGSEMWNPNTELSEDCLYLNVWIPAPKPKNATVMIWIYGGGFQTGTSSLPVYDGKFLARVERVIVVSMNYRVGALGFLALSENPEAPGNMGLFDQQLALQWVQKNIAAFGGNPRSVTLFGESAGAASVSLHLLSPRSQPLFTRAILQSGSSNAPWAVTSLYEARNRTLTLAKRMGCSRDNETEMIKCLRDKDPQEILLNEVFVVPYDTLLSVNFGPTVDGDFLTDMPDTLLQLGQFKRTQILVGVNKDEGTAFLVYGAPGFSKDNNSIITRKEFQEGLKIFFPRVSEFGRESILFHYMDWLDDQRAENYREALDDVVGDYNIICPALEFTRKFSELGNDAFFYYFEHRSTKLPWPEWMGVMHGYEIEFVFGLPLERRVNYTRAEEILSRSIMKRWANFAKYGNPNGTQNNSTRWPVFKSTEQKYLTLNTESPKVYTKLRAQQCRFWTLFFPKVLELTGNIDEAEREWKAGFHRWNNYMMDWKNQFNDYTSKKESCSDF

[20] = Inhibition of Cysteine asparaginase (unknown origin); set-up: species or system Homo sapiens
[21] = target: T2, Acetylcholinesterase; assay: Inhibition of AChE (unknown origin) using acetylthiocholine iodide as substrate by Ellman's method
[22] = target: T1, Cholinesterase; assay: Inhibition of BChE (unknown origin) using butyrylthiocholine iodide as substrate by Ellman's method
[23] = Inhibition of Calcium channel (unknown origin); set-up: species or system Homo sapiens

T1 sequence (P06276 whole entry): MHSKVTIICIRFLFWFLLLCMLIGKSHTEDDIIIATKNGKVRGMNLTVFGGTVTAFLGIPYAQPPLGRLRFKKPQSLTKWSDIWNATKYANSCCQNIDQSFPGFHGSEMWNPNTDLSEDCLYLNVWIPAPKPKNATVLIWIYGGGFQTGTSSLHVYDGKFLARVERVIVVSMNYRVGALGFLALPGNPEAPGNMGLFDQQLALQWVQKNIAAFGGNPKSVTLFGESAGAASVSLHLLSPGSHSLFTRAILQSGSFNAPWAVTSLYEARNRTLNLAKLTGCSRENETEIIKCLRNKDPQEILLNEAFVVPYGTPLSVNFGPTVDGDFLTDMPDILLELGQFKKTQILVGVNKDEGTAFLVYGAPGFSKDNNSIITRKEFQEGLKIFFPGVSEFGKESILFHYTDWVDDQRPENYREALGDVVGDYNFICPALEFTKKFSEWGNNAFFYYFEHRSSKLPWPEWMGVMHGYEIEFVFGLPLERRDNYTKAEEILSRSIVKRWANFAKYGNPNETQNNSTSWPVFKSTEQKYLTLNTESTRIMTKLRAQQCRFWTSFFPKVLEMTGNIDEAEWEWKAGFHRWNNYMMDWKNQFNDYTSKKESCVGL

With `COc1cccc(-c2csc(NC(=O)CSc3nc(N)cc(N)n3)n2)c1` the IC50 [1] was 1400 nM.
Work on `N#CC1C(N)N2CCCNC2C(C#N)C12C(=O)Nc1ccc(Br)cc12` (stereo not drawn) yielded an IC50 [2] of 17.5 µM.
Molecule `CCN(CCCCCn1c(C)cc(=O)n(CCCCCN(CC)Cc2cccc(C(=O)OC)c2)c1=O)Cc1cccc(C(=O)OC)c1` has an IC50 [3] of 290 nM.
`N#CC1C(N)N2CCCNC2C(C#N)C12C(=O)Nc1ccccc12` (stereo not drawn) gave an IC50 [4] of 4040 nM.
Molecule `CC(c1nc2c(cnn2C2CCCC2)c(=O)[nH]1)C1CC(Cc2ccc(C(=O)NO)cc2)C1` (stereo not drawn) has an IC50 [5] of 107 nM, an IC50 [6] of 593 nM and an IC50 [7] of 3530 nM. It also gave an IC50 [8] of 40 nM.
`Cc1cccc(-c2nccc(N3CCOCC3)n2)c1` gave an IC50 [9] of 430 nM and an IC50 [10] of 2500 nM.
In the case of `C[C@@H]1CN(Cc2ccc(CC(=O)CNO)cc2)C[C@H]1c1nc2c(cnn2C2CCOCC2)c(=O)[nH]1`, the IC50 [5] is reported as 8 nM, the IC50 [6] is reported as 138 nM and the IC50 [7] is reported as 1250 nM. The IC50 [8] was 508 nM.
In the case of `C#CCNc1ccc(-c2cc(-c3ccc(OCCN4CCOCC4)cc3)nc(N)n2)cc1`, the IC50 [11] is reported as 9.94 µM, the IC50 [12] is reported as 40 nM and the IC50 [13] is reported as 7.21 µM.
With `CC(c1nc2c(cnn2C2CCCC2)c(=O)[nH]1)N1CC(Cc2ccc(C(=O)Nc3ccccc3N)cc2)C1` (stereo not drawn) the IC50 [5] was 57 nM, the IC50 [6] was 99 nM and the IC50 [7] was 545 nM. The IC50 [8] was over 10000 nM.
For `CN(CCCOc1ccc([N+](=O)[O-])cc1)C(=O)c1cnc(N2CCN(c3ccc(C(=O)N4CCOCC4)cc3[N+](=O)[O-])CC2)nc1`, the IC50 [3] was 900 nM.
Work on `C#CCCCOc1ccc(-c2cc(-c3ccc(OCCN4CCOCC4)cc3)nc(-c3ccccc3)n2)cc1` yielded an IC50 [14] of 740 nM, an IC50 [15] of 8.6 µM and an IC50 [16] of 17.5 µM.
With `O=C(NCCCCCCNc1ncccn1)c1ccccc1` the inhibition [17] was 2.5%.
Work on `COc1cccc(C2C3=C(CCCC3=O)Oc3nc(C)[nH]c(=O)c32)c1` (stereo not drawn) yielded an IC50 [18] of 6.5 µM.
Molecule `CCN(CC)CCCNC1NC(c2ccccc2)=NC2=C1C/C(C(=O)OC)=C\N(C(C)C)CC2` (stereo not drawn) has an IC50 [19] of 105 nM.
For `CCN(CCCCCn1c(C)cc(=O)n(CCCCCN(CC)Cc2ccccc2C#N)c1=O)Cc1ccccc1C#N`, the IC50 [3] was 7300 nM.
In the case of `CC1(C)CC(=O)c2c(N)nc(Nc3ccccc3)nc2C1`, the IC50 [20] is reported as 22 nM.
In the case of `COc1cccc(-c2nc(SCCCSc3nc(N)c(C#N)c(-c4cccc(OC)c4)n3)nc(N)c2C#N)c1`, the IC50 [21] is reported as 5.72 µM.
`Cc1ccc(O)c(CNc2c(N)n(C)c(=O)n(C)c2=O)c1` gave an IC50 [4] of 4.65 nM.
With `C#CCCCOc1ccc(-c2cc(-c3ccc(OCCN4CCCC4)cc3)nc(-c3ccccc3)n2)cc1` the IC50 [14] was 750 nM, the IC50 [15] was over 50 µM and the IC50 [16] was 2.19 µM.
With `CCOC(=O)C1=C(C)N=C2SC(c3ccc([N+](=O)[O-])cc3)=NN2C1c1ccc(C=O)cn1` (stereo not drawn) the IC50 [9] was 82 nM.
`N#Cc1c(N)nc(SCCCSc2nc(N)c(C#N)c(-c3ccc(Br)cc3)n2)nc1-c1ccc(Br)cc1` gave an IC50 [22] of 12.2 µM.
`CCOC(=O)C1=C(C)N(CCC2CCN(Cc3ccccc3)CC2)C(=O)NC1c1coc2c(Cl)cc(Cl)cc2c1=O` (stereo not drawn) gave an IC50 [23] of 1400 nM.
With `C#CCOc1ccc(-c2cc(-c3ccc(OCCN4CCOCC4)cc3)nc(N)n2)cc1` the IC50 [11] was 0.018 µM, the IC50 [12] was over 50000 nM and the IC50 [13] was 30.5 µM.
`COC(=O)/C1=C/N(C(C)C)CCc2nc(-c3ccccc3)[nH]c(=O)c2C1` gave an IC50 [19] of 1300 nM.
`c1ccc(CNCCCCCCNc2ncccn2)cc1` gave an inhibition [17] of 92.9%.
